System: Caenorhabditis elegans
Assay: C. elegans L1 nematicidal dose response in 96-well plates, 5 day visual score (Example 2; same procedure for Example 7, Table 3)
Format: in vivo
Parameters: key to 5 Day Visual Score V1 / 5 Day Visual Score V2 / 5 Day Visual Score V3 / 5 Day Visual Score V4 / 5 Day Visual Score V6 / 5 Day Visual Score V5 / Initial HTS Run Visual Score / Follow-up HTS Run Visual Score: Dead: only stiff L1s (no movement); Dead (L4): worms are dead, but at a later larval stage; majority of worms are L1 (based on size) worms move when plate is tapped; majority of worms are L2 (based on size); majority of worms are L3 (based on size); majority of worms are L4 (based on size); AD: majority of worms are adult; #AD: 5 adult worms or less; B!: sterile (0-25 progeny); B: low broodsize (25-100 progeny); ˜B: moderate broodsize (100-250 progeny); <: reduced broodsize (250-500 progeny); OK: no effect (˜1000+ progeny)
In short: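 Scoring was by eye at 100× on day 5, after incubation at 20° C, of 20 C. elegans L1s per well fed 1% E. coli HB101 in NGM. Compound columns V1–V6 spanned 70 μM to 0.3 μM in 3-fold steps, with 1.4% DMSO in the top well and as control.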

[1] = dose response, dilution V1, 5 day
[2] = dose response, dilution V2, 5 day
[3] = dose response, dilution V3, 5 day
[4] = dose response, dilution V4, 5 day
[5] = dose response, dilution V5, 5 day
[6] = dose response, dilution V6, 5 day
[7] = 0.3 μM, C. elegans L1, scored day 5
[8] = 0.9 μM, C. elegans L1, scored day 5
[9] = 2.6 μM, C. elegans L1, scored day 5
[10] = 7.8 μM, C. elegans L1, scored day 5
[11] = 23.3 μM, C. elegans L1, scored day 5
[12] = 70 μM, C. elegans L1, scored day 5
[13] = dose response, dilution V1, day 5
[14] = dose response, dilution V2, day 5
[15] = dose response, dilution V3, day 5
[16] = dose response, dilution V4, day 5
[17] = dose response, dilution V5, day 5
[18] = dose response, dilution V6, day 5

| Compound | Follow-up HTS Run % Run [%] | Follow-up HTS Run Visual Score | Follow-up HTS Run mOD [mOD] | Initial HTS Run % Run [%] | Initial HTS Run Visual Score | Initial HTS Run mOD [mOD] | 5 Day Visual Score V1 [13] | 5 Day Visual Score V3 [15] | 5 Day Visual Score V4 [16] | 5 Day Visual Score V5 [17] | 5 Day Visual Score V6 [18] | other results |
| --- | --- | --- | --- | --- | --- | --- | --- | --- | --- | --- | --- | --- |
| CC(C)CN(CC(C)C)c1nc(NCc2ccc(C(F)(F)F)cc2)ns1 [compound 311] | 109 | B! (sterile (0-25 progeny)) | 176 | 98 | L4/AD/B! | 108 | – | – | – | – | – | 5 Day Visual Score V1 [1]: L1; 5 Day Visual Score V2 [2]: < (reduced broodsize (250-500 progeny)); 5 Day Visual Score V3 [3]: OK (no effect (˜1000+ progeny)); 5 Day Visual Score V4 [4]: OK (no effect (˜1000+ progeny)); 5 Day Visual Score V5 [5]: OK (no effect (˜1000+ progeny)); 5 Day Visual Score V6 [6]: OK (no effect (˜1000+ progeny)) |
| CCCc1ccc(C(CC(=O)c2ccc(C)cc2)Nc2ccc(-c3ccccc3)cc2)cc1 (stereo not drawn) [AKC 133] | – | – | – | – | – | – | – | – | – | – | – | 5 Day Visual Score V6 [7]: Dead; 5 Day Visual Score V5 [8]: Dead; 5 Day Visual Score V4 [9]: Dead; 5 Day Visual Score V3 [10]: Dead; 5 Day Visual Score V2 [11]: Dead; 5 Day Visual Score V1 [12]: Dead |
| CCN(c1nc(N2CCN(c3c(C)cccc3C)CC2)ns1)C1CCCCC1 [compound 228] | 73 | Dead/1L4/1AD | 118 | 107 | 1AD/B! | 118 | Dead | OK (no effect (˜1000+ progeny)) | OK (no effect (˜1000+ progeny)) | OK (no effect (˜1000+ progeny)) | OK (no effect (˜1000+ progeny)) | 5 Day Visual Score V2 [14]: Dead |
| CCOc1cccc(C2ON=C(c3ccccc3OCC)C2C(=O)NCCc2ccc(OC)c(OCC)c2)c1 (stereo not drawn) [AKC 124] | – | – | – | – | – | – | – | – | – | – | – | 5 Day Visual Score V6 [7]: L4/#AD/B; 5 Day Visual Score V5 [8]: L4/#AD/B; 5 Day Visual Score V4 [9]: L4/#AD/B |
| CCC(=O)C(C)C(Nc1cc(Br)c(C)c(Br)c1)c1ccc(C)o1 (stereo not drawn) [AKC 131] | – | – | – | – | – | – | – | – | – | – | – | 5 Day Visual Score V6 [7]: < (reduced broodsize (250-500 progeny)); 5 Day Visual Score V5 [8]: #AD/˜B; 5 Day Visual Score V4 [9]: #AD/˜B; 5 Day Visual Score V3 [10]: #AD/˜B; 5 Day Visual Score V2 [11]: L1; 5 Day Visual Score V1 [12]: Dead |
| CCCCN(Cc1ccccc1)c1nc(NCc2ccc(C(F)(F)F)cc2)ns1 [compound 309] | 119 | – | 191 | 106 | L4/AD/B! | 117 | L1 | OK (no effect (˜1000+ progeny)) | OK (no effect (˜1000+ progeny)) | OK (no effect (˜1000+ progeny)) | OK (no effect (˜1000+ progeny)) | 5 Day Visual Score V2 [14]: B (low broodsize (25-100 progeny)) |
| C=CCN(CC=C)c1nc(NCc2c(F)cccc2F)ns1 [compound 300] | 108 | L4/AD/B! | 174 | 108 | – | 119 | Dead(L2/L3) | < (reduced broodsize (250-500 progeny)) | OK (no effect (˜1000+ progeny)) | OK (no effect (˜1000+ progeny)) | OK (no effect (˜1000+ progeny)) | – |
| COc1ccc(CNc2nsc(N3CCN(c4ccc(F)cc4)CC3)n2)cc1 [compound 271] | 109 | – | 175 | 101 | L4/AD/B | 111 | Dead | – | < (reduced broodsize (250-500 progeny)) | OK (no effect (˜1000+ progeny)) | < (reduced broodsize (250-500 progeny)) | – |
| CCCCCCCCS(=O)(=O)N1CCN(C(=O)C=Cc2cccc(C(F)(F)F)c2)CC1C(=O)NCc1ccc(C(F)(F)F)cc1 (stereo not drawn) [AKC 171] | – | – | – | – | – | – | – | – | – | – | – | 5 Day Visual Score V5 [8]: < (reduced broodsize (250-500 progeny)); 5 Day Visual Score V3 [10]: Dead(L4)/#A; 5 Day Visual Score V2 [11]: L2; 5 Day Visual Score V1 [12]: Dead |
| CCCCCCCCCCCCCCCCCCN(C)c1nc(NC2CCCCCCCCCCC2)ns1 [compound 330] | 56 | Dead | 90 | 107 | Dead (L2/L3) | 118 | – | – | – | – | – | 5 Day Visual Score V1 [1]: Dead; 5 Day Visual Score V2 [2]: Dead; 5 Day Visual Score V4 [4]: OK (no effect (˜1000+ progeny)); 5 Day Visual Score V5 [5]: OK (no effect (˜1000+ progeny)); 5 Day Visual Score V6 [6]: OK (no effect (˜1000+ progeny)) |
| CN(CCc1ccccc1)c1nc(NCc2ccc(F)cc2F)ns1 [compound 294] | 116 | B! (sterile (0-25 progeny)) | 187 | 108 | L4/AD/B!-Few Eggs | 119 | – | OK (no effect (˜1000+ progeny)) | OK (no effect (˜1000+ progeny)) | OK (no effect (˜1000+ progeny)) | OK (no effect (˜1000+ progeny)) | – |
| OCCN(Cc1ccccc1)c1nc(NCc2ccc(C(F)(F)F)cc2)ns1 [compound 255] | 98 | L1/L2 - Dead L3 | 157 | 94 | Dead(L3) | 103 | Dead | OK (no effect (˜1000+ progeny)) | OK (no effect (˜1000+ progeny)) | OK (no effect (˜1000+ progeny)) | OK (no effect (˜1000+ progeny)) | 5 Day Visual Score V2 [14]: Dead |
| CCCCN(Cc1ccccc1)c1nc(NC2CCCCCCCCCCC2)ns1 [compound 333] | 76 | Dead | 123 | 93 | Dead | 102 | – | – | – | – | – | 5 Day Visual Score V1 [1]: Dead; 5 Day Visual Score V2 [2]: Dead; 5 Day Visual Score V3 [3]: Dead; 5 Day Visual Score V4 [4]: OK (no effect (˜1000+ progeny)); 5 Day Visual Score V5 [5]: OK (no effect (˜1000+ progeny)); 5 Day Visual Score V6 [6]: OK (no effect (˜1000+ progeny)) |
| CCCCN(CCCCO)c1nc(N2CCN(c3c(C)cccc3C)CC2)ns1 [compound 220] | 75 | Dead | 121 | 95 | 1AD/B! | 105 | Dead | ˜B (moderate broodsize (100-250 progeny)) | OK (no effect (˜1000+ progeny)) | OK (no effect (˜1000+ progeny)) | OK (no effect (˜1000+ progeny)) | – |
